Test results as given in US11214625B2, “Application of PCSK9 inhibitors in the preparation of drugs for the treatment of inflammatory immune diseases” (priority 2015, dated 2022).
Entries after “also recorded” stand apart in the source; their conditions may differ.

Legend:
[1] = tested on: IMQ induced psoriatic lesions in BALB/c mice; assay: External (cream) use on IMQ induced psoriatic lesions of mice; assay type: in vivo; conditions: for erythema, scales and infiltration in the back of the mice / score of erythema, scales, infiltration and total score: cream 0.01% once daily; for erythema, scales and infiltration in the back of the mice: 7 days pretreatment, then 6 days with IMQ; for score of erythema, scales, infiltration and total score: daily score during 6 days of IMQ; for adverse reaction: external ointment once a day; for efficacy compared between groups: external use (ointment/cream)
Method: (§1) (1) 40 SPF female BALB/c mice aged 6-8 weeks were randomly divided into normal control group, model group, PCSK9 inhibitor group and PCSK9 monoclonal antibody group. There were 10 mice for each group. After intraperitoneal injection of pentobarbital sodium 80 mg/kg, the back was shaved with an area of about 2 cm×3 cm. The mice were feed separately for 1 day.
(2) In normal control group, vaseline was applied locally. In model group, small molecule inhibitor group and monoclonal antibody group, 62.5 mg of 5% imiquimod cream was applied on the back every day for 6 consecutive days, and photos were taken and the PASI score was evaluated.
(3) Pretreatment: vaseline was applied on the back skin with mics in normal control group and model group, PCSK9 small molecule inhibitor cream (0.01% concentration) was applied to inhibitor group once daily. And, PCSK9 monoclonal antibody cream (0.01% concentration) was applied to monoclonal antibody group once daily.
(4) After 7 days pretreatment, vaseline was applied on the back skin with mice in normal control group. At the same time, 62.5 mg 5% imiquimod cream was regularly applied daily on the back with mice in model group, small molecule inhibitor group and monoclonal antibody group. PCSK9 small molecule inhibitor cream or PCSK9 monoclonal antibody cream was applied after one hour. For 6 consecutive days, photos were taken and the PASI score was evaluated.

[2] = tested on: IMQ induced psoriasis-like lesions in BALB/c mice; assay: Subcutaneous injection in mice with IMQ induced psoriasis-like skin lesions; assay type: in vivo; conditions: for adverse reactions / therapeutic effect compared between groups: subcutaneous injection; for erythema, scales and infiltration in the back coating area: subcutaneous on first day (inhibitor 8 mg/kg, antibody 10 mg/kg), after 6 days of IMQ; for score of erythema, scales, infiltration and total score: subcutaneous, daily scoring during 6 days of IMQ
Method: as §1, with “The PCSK9 monoclonal antibody used for this example is Evolocumab. 40 SPF” for “(1) 40 SPF”, “group, PCSK9 small molecule inhibitor group” for “group, PCSK9 inhibitor group”
(1) In normal control group, Vaseline was applied locally. In model group, inhibitor group and monoclonal antibody group, 62.5 mg of 5% imiquimod cream was applied on the back every day for 6 consecutive days, photos were taken and the PASI score was evaluated.
(2) On the first day, normal saline was subcutaneously administrated to normal control group and model group, PCSK9 small molecule inhibitor was subcutaneously administrated (8 mg/kg, Purchased from Selleck Inc.) to inhibitor group, and PCSK9 monoclonal antibody was subcutaneously administrated to monoclonal antibody group (10 mg/kg, Purchased from abcam Inc.)

[3] = tested on: CD4 T cells isolated from peripheral blood of patients with psoriasis, eczema and urticaria; assay: Effect of PCSK9 protein on cytokine secretion of peripheral blood CD4+ T cells (ELISA); assay type: cell-based, human
Method: Materials: peripheral blood of 10 cases of psoriasis, 10 cases of eczema, 10 cases of urticaria, and 10 cases of normal people. ELISA kit was purchased from Raybiotech
After PBMC was isolated by Ficoll-Hypaque from human peripheral blood by density gradient centrifugation, washed with 10 times volume 1×BD beads buffer. Then 50 ul BD IMag TM CD4 beads were added to each […]. The beads were mixed well and incubated at room temperature for 30 minutes. 1 ml 1×BD magnetic bead buffer solution was added, and the cells were transferred to the round bottom tube and placed in the magnetic frame for 8 to 10 minutes. And then the supernatant was discarded and removed the test tube from the magnetic field. After resuspension of cells attached to tube wall with 1 ml 1×BD magnetic bead buffer, the tubes were placed in magnetic field for 2-4 min again. The supernatant was discarded removed it out of the magnetic field, resuspended the cells and placed the tube in the magnetic field for 2-4 min. The cells obtained from the […] can be used in subsequent experiments. BD IMag TM CD4 separation system was purchased from BD Biosciences Company.
The supernatant was collected after cell culture under different conditions. IFN-Gamma represented TH1 type cytokines, IL-4 represented TH2 type cytokines, and IL-17 represented TH17 cytokines. The detection of IFN-Gamma, IL-4, IL-17 was conducted by ELISA.

Molecule	erythema, scales and infiltration in the back of the mice [1]	score of erythema, scales, infiltration and total score [1]	adverse reaction [1]	efficacy compared between groups [1]	adverse reactions [2]	therapeutic effect compared between groups [2]	erythema, scales and infiltration in the back coating area [2]	score of erythema, scales, infiltration and total score [2]	secretion of IL-17, IL-2 and IFN-Gamma by CD4 T cells ([3]; CD4 T cells of patients with psoriasis, eczema and urticaria, ELISA of supernatant)	expression of NFkb in CD4 T cells ([3]; especially in psoriatic patients)
O=C(c1ccc(-n2nnc3cccnc32)cc1)N(c1ncccc1Cl)C1CCCNC1 (stereo not drawn) [PCSK9 small molecule inhibitor]	only slight erythema, scales and infiltration	significantly lower than that in PCSK9 monoclonal antibody group; also recorded: significantly reduce	no obvious adverse reaction	better than that of PCSK9 monoclonal antibody group; also recorded: significantly better than that of control group	no obvious adverse reactions	better than that of PCSK9 monoclonal antibody group; also recorded: significantly better than that of control group	only mild erythema, scales and infiltration	significantly lower than that of PCSK9 monoclonal antibody group; also recorded: reduce		
PCSK9 protein: PCSK9 protein added to CD4 T cells of patients									significantly promote	increased
PCSK9 monoclonal antibody: PCSK9 monoclonal antibody used for Examples 6 and 7 is Evolocumab; SEQ ID NO:3-6 (antibody, chains of the INN, looked up, V domains shown) VH: EVQLVQSGAEVKKPGASVKVSCKASGYTLTSYGISWVRQAPGQGLEWMGWVSFYNGNTNYAQKLQGRGTMTTDPSTSTAYMELRSLRSDDTAVYYCARGYGMDVWGQGTTVTVSS VL: ESALTQPASVSGSPGQSITISCTGTSSDVGGYNSVSWYQQHPGKAPKLMIYEVSNRPSGVSNRFSGSKSGNTASLTISGLQAEDEADYYCNSYTSTSMVFGGGTKLTVL	only slight erythema, scales and infiltration	significantly reduce	no obvious adverse reaction	significantly better than that of control group	no obvious adverse reactions	significantly better than that of control group	only mild erythema, scales and infiltration	reduce		
